Assay results taken from publication PMC8838850, “Synthesis, Antimicrobial, Anti-Virulence and Anticancer Evaluation of New 5(4H)-Oxazolone-Based Sulfonamides” (Molecules, 2022).
In brackets after ≈: the same amount, converted by molar mass.

Assays:
[1] = tested on: S. aureus; assay: Assay of protease production (casein substrate); format: cell-based, Staphylococcus aureus; conditions: sub-MIC
Protocol: The effect of compounds 5, 7 and 10 on the production of protease was evaluated using casein substrate as described earlier. Briefly, overnight cultures of P. aeruginosa and S. aureus were cultivated in LB broth in the presence or absence of compounds 5, 7 and 10 at ½ MIC for 24 h at 37 °C. The supernatants were collected, mixed (1:1) with 0.05 M casein in phosphate buffer (2%) and NaOH (0.1 M) at pH 7.0, and incubated for 15 min at 37 °C. The reaction was stopped by adding 2 mL of 0.4 M trichloroacetic acid for 30 min at 25 °C. Any precipitates were removed, and the optical densities were detected at 660 nm. The assays were performed in triplicate and the obtained optical densities of tested strains treated with compounds 5, 7 and 10 were expressed as mean ± standard error of percentage change from untreated tested strains control (positive control) and LB (negative control). The protease inhibition percentages were calculated: (O.D control—O.D tested compounds)/O.D control.

[2] = tested on: Staphylococcus epidermidis ATCC 12228; assay: MIC by agar dilution; format: cell-based; conditions: ATCC12228, 37 °C, 20 h, read-out: Minimum inhibitory concentration (MIC)
Protocol: (§1) The MICs of the synthesized compound were determined by agar dilution method according to the Clinical Laboratory and Standards Institute Guidelines (CLSI, 2015). Briefly, the tested strains were incubated overnight in tryptic soy broth (TSB) (Oxoid, United Kingdom) and then diluted in Muller–Hinton (MH) broth (Oxoid, United Kingdom) to turbidity approximating to the equivalent of 0.5 McFarland standard. The suspensions were further diluted with sterile saline (1:10) and standardized inoculums (approximately 10^4 CFU per spot) were spotted on the surfaces of MH agar (Oxoid, United Kingdom) plates containing different concentrations of tested compounds and a control plate. The MICs were the lowest concentrations that inhibit growth on the plates after incubation at 37 °C for 20 h.

[3] = tested on: Klebsiella pneumoniae ATCC 27736; assay: MIC by agar dilution; format: cell-based; conditions: ATCC27736, 37 °C, 20 h, read-out: Minimum inhibitory concentration (MIC)
Protocol: as §1

[4] = tested on: Micrococcus spp. ATCC 10240; assay: MIC by agar dilution; format: cell-based; conditions: ATCC10240, 37 °C, 20 h, read-out: Minimum inhibitory concentration (MIC)
Protocol: as §1

[5] = tested on: Salmonella typhimurium ATCC 14028; assay: MIC by agar dilution; format: cell-based; conditions: Salmonella enterica, 37 °C, 20 h, read-out: Minimum inhibitory concentration (MIC)
Protocol: as §1

[6] = tested on: Escherichia coli ATCC 10536; assay: MIC by agar dilution; format: cell-based; conditions: ATCC10536, 37 °C, 20 h, read-out: Minimum inhibitory concentration (MIC)
Protocol: as §1

[7] = tested on: Staphylococcus aureus ATCC 6538; assay: MIC by agar dilution; format: cell-based; conditions: ATCC6538, 37 °C, 20 h, read-out: Minimum inhibitory concentration (MIC)
Protocol: as §1

[8] = tested on: S. aureus ATCC 6538; assay: Biofilm formation assay (crystal violet, light microscopy); format: cell-based, Staphylococcus aureus; conditions: sub-MIC (½ MIC), crystal violet method
Protocol: Bacterial virulence is regulated via a quorum sensing (QS) system in an inducer/receptor manner. Diminishing bacterial virulence is an advantageous strategy to decrease the development of bacterial resistance. In this direction, anti-virulence and anti-QS activities have been explored in several studies as reviewed. The ability of P. aeruginosa or S. aureus to form biofilms was assayed in the absence or presence of tested compounds at sub-MIC. […] The experiment was conducted in triplicate and a one-way ANOVA test was employed to test the statistical significance using Graphpad Prism 8 software. The results were significant statistically where p values < 0.05. Moreover, microscopic visualization of biofilm under the effect of tested compounds was also performed by light microscopy. Representative images for the inhibitory effects on S. aureus and P. aeruginosa biofilm formation are shown (Figure 3C,D). The microscopic images show a marked reduction in both the thickness of and surface area covered by the biofilms in presence of the tested compound.
In order to evaluate the ability of the tested compounds to inhibit the biofilm formation, a strong biofilm forming P. aeruginosa ATCC 47,085 [47, 66] and S. aureus ATCC 6538 [67] strains were used. As described earlier, suspensions of tested strains were prepared from overnight cultures in TSB and their optical densities were adjusted to OD600 of 0.4 (1×10^8 CFU/mL). Aliquots of 10 μL of the suspensions were added to 1 mL amounts of fresh TSB with or without sub-MICs of tested compounds. […] The non-adherent cells were removed, the wells were washed with sterile PBS, and left to dry. The attached biofilm forming cells were fixed with methanol for 25 min and stained with 1% crystal violet for 30 min. The excess dye was washed out and the crystal violet staining adhered biofilm forming cells were eluted by glacial acetic acid (33%). The experiment was conducted in triplicate and the absorbance was measured at 590 nm. The absorbances of tested strains treated with different compounds were expressed as mean ± standard error of percentage change from untreated tested strains control. The percentages of biofilm inhibition were calculated employing the following formula: (absorbance of control—absorbance in presence of tested compounds)/absorbance of control.

[9] = tested on: P. aeruginosa; assay: Assay of hemolytic activity; format: cell-based, Pseudomonas aeruginosa; conditions: sub-MIC
Protocol: The anti-virulence effects of compounds 5, 7 and 10 on hemolytic activity of tested P. aeruginosa and S. aureus strains were assessed as described previously. Optically adjusted bacterial cultures treated or untreated with tested compounds at sub-MIC were centrifuged, and 0.5 mL of supernatants were mixed with fresh 0.8 mL 2% erythrocyte (obtained from experimental animals) suspension in saline, and incubated for 2 h at 37 °C. A complete hemolysis positive control was prepared by addition of sodium dodecyl sulphate (SDS) to erythrocyte suspension, and negative control was prepared by incubation of erythrocytes in LB broth under the same conditions. After centrifugation, the absorbances of the lysed erythrocytes were measured at 540 nm by Biotek spectrofluorometer (Biotek, Winooski, VT, USA). The experiment was performed in triplicate, and the hemolysis of tested compound treated cultures were expressed as mean ± standard error of percentages compared with those obtained from untreated control cultures using the formula: (absorbance in presence or absence of tested compounds—absorbance of negative control)/(absorbance of positive control—absorbance of negative control).

[10] = tested on: P. aeruginosa; assay: Quantification of pyocyanin pigment; format: cell-based, Pseudomonas aeruginosa; conditions: sub-MIC
Protocol: The ability of selected compounds 5, 7 and 10 at sub-MIC to reduce the P. aeruginosa pyocyanin pigment production was estimated as described earlier. P. aeruginosa overnight cultures were prepared and diluted in LB broth at 600 nm (O.D0.4), and 10 μL of the bacterial suspensions were added to 1mL broth tubes containing, or not, tested drugs at sub-MIC. After incubation for 48 h at 37 °C, the tubes were centrifuged and the pyocyanin in the supernatant was assayed spectrophotometrically at 691 nm by a Biotek spectrofluorometer (Biotek, Winooski, VT, USA). The experiment was repeated in triplicate, and the pyocyanin absorbances in the presence of tested compounds were expressed as mean ± standard error of percentage change from untreated controls. The percentages of pigment production were calculated using the formula: (absorbance of control − absorbance in presence of tested compounds)/absorbance of control.

COc1ccc(/C=C2/N=C(c3ccccc3NS(=O)(=O)c3ccc(C)cc3)OC2=O)cc1 [Compound 9b, (E)-N-(2-(4-(4-Methoxybenzylidene)-5-oxo-4,5-dihydrooxazol-2-yl)phenyl)-4-methylbenzenesulfonamide]
Production of protease [1]: significantly reduced the production of protease | MIC [2]: 1 µg/mL (≈ 2.23 µM) | MIC [3]: 4 µg/mL (≈ 8.92 µM) | MIC [4]: 1 µg/mL (≈ 2.23 µM) | MIC [5]: 4 µg/mL (≈ 8.92 µM) | MIC [6]: 2 µg/mL (≈ 4.46 µM) | MIC [7]: 2 µg/mL (≈ 4.46 µM) | Inhibition of biofilm formation [8]: highest abilities to inhibit biofilm formation | Hemolytic activity [9]: significantly diminished the hemolytic activity | Production of pigment pyocyanin [10]: significantly decreased the production

Cc1ccc(S(=O)(=O)Nc2ccccc2C2=N/C(=C/c3ccccc3)C(=O)O2)cc1 [Compound 9a, (E)-N-(2-(4-Benzylidene-5-oxo-4,5-dihydrooxazol-2-yl)phenyl)-4-methylbenzenesulfonamide]
Production of protease [1]: significantly reduced the production of protease | MIC [2]: 4 µg/mL (≈ 9.56 µM) | MIC [3]: 4 µg/mL (≈ 9.56 µM) | MIC [4]: 4 µg/mL (≈ 9.56 µM) | MIC [5]: 4 µg/mL (≈ 9.56 µM) | MIC [6]: 2 µg/mL (≈ 4.78 µM) | MIC [7]: 4 µg/mL (≈ 9.56 µM) | Inhibition of biofilm formation [8]: highest abilities to inhibit biofilm formation | Hemolytic activity [9]: significantly diminished the hemolytic activity | Production of pigment pyocyanin [10]: significantly decreased the production

Cc1ccc(S(=O)(=O)Nc2ccccc2C2=N/C(=C/c3ccc([N+](=O)[O-])cc3)C(=O)O2)cc1 [Compound 9f, (E)-4-Methyl-N-(2-(4-(4-nitrobenzylidene)-5-oxo-4,5-dihydrooxazol-2-yl)phenyl)benzenesulfonamide]
Production of protease [1]: significantly reduced the production of protease | MIC [2]: 2 µg/mL (≈ 4.32 µM) | MIC [3]: 2 µg/mL (≈ 4.32 µM) | MIC [4]: 2 µg/mL (≈ 4.32 µM) | MIC [5]: 2 µg/mL (≈ 4.32 µM) | MIC [6]: 4 µg/mL (≈ 8.63 µM) | MIC [7]: 2 µg/mL (≈ 4.32 µM) | Inhibition of biofilm formation [8]: highest abilities to inhibit biofilm formation | Hemolytic activity [9]: significantly diminished the hemolytic activity | Production of pigment pyocyanin [10]: significantly decreased the production
